pIC50: −log10 of the molar value. Active and inactive are the calls of the source. The calls are words filed in the database; no cut-off is given here.
Key:
[1] = tested on: Trichophyton longifusum; test: Growth inhibition of Trichophyton longifusum at 200 ug/ml after 7 days; assay type: functional; settings: 168 h
[2] = target: Urease (Canavalia ensiformis) (UniProt P07374); test: Inhibition of Canavalia ensiformis (jack bean) urease assessed as inhibition of ammonia production at 200 uM after 15 min by indophenol method
[3] = tested on: Lemna aequinoctialis; test: Phytotoxicity against Lemna aequinoctialis assessed as growth inhibition at 500 ug/ml after 7 days relative to control; assay type: functional; settings: 168 h, read-out: GI
[4] = tested on: Lemna aequinoctialis; test: Phytotoxicity against Lemna aequinoctialis assessed as growth inhibition at 50 ug/ml after 7 days relative to control; assay type: functional; settings: 168 h, read-out: GI
[5] = tested on: Microsporum canis; test: Growth inhibition of Arthroderma otae at 200 ug/ml after 7 days; assay type: functional; settings: 168 h
[6] = tested on: Aspergillus flavus; test: Growth inhibition of Aspergillus flavus at 200 ug/ml after 7 days; assay type: functional; settings: 168 h
[7] = tested on: Nakaseomyces glabratus; test: Growth inhibition of Candida glabrata at 200 ug/ml after 7 days; assay type: functional; settings: 168 h
[8] = target: Urease (Canavalia ensiformis, UniProt P07374); test: Inhibition of Canavalia ensiformis (jack bean) urease assessed as inhibition of ammonia production after 15 min by indophenol method; settings: for pIC50: read-out: IC50
[9] = Toxicity against Artemia salina (brine shrimp) assessed as mortality after 24 hr; assay type: organism-based; settings: in vivo, read-out: LD50
[10] = tested on: Lemna aequinoctialis; test: Phytotoxicity against Lemna aequinoctialis assessed as growth inhibition at 5 ug/ml after 7 days relative to control; assay type: functional; settings: 168 h, read-out: GI
[11] = tested on: Fusarium solani; test: Growth inhibition of Fusarium solani at 200 ug/ml after 7 days; assay type: functional; settings: 168 h
[12] = tested on: Candida albicans; test: Growth inhibition of Candida albicans at 200 ug/ml after 7 days; assay type: functional; settings: 168 h
[13] = target: Urease (Canavalia ensiformis) (UniProt P07374); test: Inhibition of Canavalia ensiformis (jack bean) urease assessed as inhibition of ammonia production at 100 uM after 15 min by indophenol method
[14] = target: Urease (Canavalia ensiformis) (UniProt P07374); test: Inhibition of Canavalia ensiformis (jack bean) urease assessed as inhibition of ammonia production at 500 uM after 15 min by indophenol method
[15] = species: Homo sapiens; test: Inhibition of […] urease-mediated ammonia production at 100 uM after 15 min by indophenol method
[16] = tested on: Lemna aequinoctialis; test: Phytotoxicity against Lemna aequinoctialis assessed as growth inhibition at 0.015 g/ml after 7 days relative to control; assay type: functional

Chain of Urease (P07374 whole entry): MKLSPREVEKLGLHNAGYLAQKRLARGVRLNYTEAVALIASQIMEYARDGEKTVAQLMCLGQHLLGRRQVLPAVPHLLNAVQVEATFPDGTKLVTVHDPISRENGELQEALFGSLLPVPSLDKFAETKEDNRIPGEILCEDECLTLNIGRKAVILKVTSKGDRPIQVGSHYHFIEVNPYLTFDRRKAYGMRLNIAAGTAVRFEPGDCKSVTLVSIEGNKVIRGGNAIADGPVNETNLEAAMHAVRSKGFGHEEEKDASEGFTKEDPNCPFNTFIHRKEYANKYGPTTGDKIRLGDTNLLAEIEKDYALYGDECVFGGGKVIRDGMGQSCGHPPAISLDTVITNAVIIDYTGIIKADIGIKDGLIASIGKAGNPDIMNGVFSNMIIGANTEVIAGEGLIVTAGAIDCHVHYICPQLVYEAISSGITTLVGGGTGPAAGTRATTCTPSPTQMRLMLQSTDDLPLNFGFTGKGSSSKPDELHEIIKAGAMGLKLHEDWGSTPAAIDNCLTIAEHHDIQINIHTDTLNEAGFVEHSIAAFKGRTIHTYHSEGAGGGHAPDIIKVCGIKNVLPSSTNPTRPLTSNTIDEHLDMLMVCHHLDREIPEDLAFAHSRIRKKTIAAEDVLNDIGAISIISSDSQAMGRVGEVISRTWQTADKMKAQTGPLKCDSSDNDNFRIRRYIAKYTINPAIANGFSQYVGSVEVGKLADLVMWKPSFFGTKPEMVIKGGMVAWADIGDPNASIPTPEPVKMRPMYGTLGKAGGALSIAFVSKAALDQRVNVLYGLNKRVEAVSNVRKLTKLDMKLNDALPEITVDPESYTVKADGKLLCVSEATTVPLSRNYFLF
Chain of Urease (Canavalia ensiformis) (P07374 whole entry, looked up): as the sequence (P07374 whole entry) above

| Structure (SMILES) | inhibition at 200 µg/mL [1] | inhibition [2] | inhibition of growth at 500 µg/mL [3] | inhibition of growth at 50 µg/mL [4] | inhibition at 200 µg/mL [5] | inhibition at 200 µg/mL [6] | inhibition at 200 µg/mL [7] | IC50 [8] | LC50 at 24 h [9] | inhibition of growth at 5 µg/mL [10] | inhibition at 200 µg/mL [11] | inhibition at 200 µg/mL [12] | pIC50 [8] | inhibition [13] | inhibition [14] | inhibition [15] | growth inhibition (GI) [16] |
| --- | --- | --- | --- | --- | --- | --- | --- | --- | --- | --- | --- | --- | --- | --- | --- | --- | --- |
| O=C1Nc2ccc(F)cc2/C1=N/NC(=S)Nc1ccc(Br)cc1F | 0% | 21.9% | 30% | 25% | 20% | 0% | 0% | Not Active | > 49.1 µM | 10% | 10% | 0% | – | – | – | – | – |
| O=C1Nc2ccc(F)cc2/C1=N/NC(=S)Nc1ccc(C(F)(F)F)cc1 | 0% | 53.4% | 25% | 15% | 25% | 20% | 0% | – | 176 µM | 10% | 5% | 0% | 4.04 | – | – | – | – |
| O=C1Nc2ccccc2/C1=N/NC(=S)Nc1cc(F)cc(F)c1 | – | – | – | – | – | – | – | – | – | – | – | – | – | 38.8% | – | – | – |
| O=C1Nc2ccc(F)cc2/C1=N/NC(=S)Nc1c(F)cccc1F | 0% | – | 30% | 10% | 40% | 40% | 0% | – | 115 µM | 0% | 0% | 0% | 4.33 | – | 72.5% | – | – |
| O=C1Nc2ccc(F)cc2/C1=N/NC(=S)Nc1ccc(F)cc1 | 0% | – | 35% | 25% | 15% | 0% | 0% | Not Active | 97.9 µM | 10% | 10% | 0% | – | – | 45.6% | – | – |
| O=C1Nc2ccccc2/C1=N/NC(=S)Nc1ccccc1 | – | – | 40% | 25% | – | – | – | – | > 338 µM | 15% | – | – | – | – | – | inactive | – |
| O=C1Nc2ccc(F)cc2/C1=N/NC(=S)Nc1ccccc1 | 0% | – | 70% | 15% | 20% | 0% | 0% | – | 68.9 µM | 10% | 0% | 0% | 3.46 | – | 53% | – | – |
| O=C1Nc2ccccc2/C1=N/NC(=S)Nc1cccc(F)c1 | – | – | – | – | – | – | – | – | – | – | – | – | 4.30 | 57.3% | – | – | – |
| O=C1Nc2ccc(F)cc2/C1=N/NC(=S)Nc1ccc(OC(F)(F)F)cc1 | 0% | – | 35% | 20% | 30% | 10% | 0% | Not Active | > 50.3 µM | 10% | 0% | 0% | – | – | 18.9% | – | – |
| NC(N)=S | – | – | – | – | – | – | – | – | – | – | – | – | – | – | 99% | – | – |
| O=C1Nc2ccccc2/C1=N/NC(=S)Nc1ccccc1F | – | – | – | – | – | – | – | – | – | – | – | – | 4.69 | 84.9% | – | – | – |
| O=C1Nc2ccc(F)cc2/C1=N/NC(=S)Nc1cc(F)cc(F)c1 | 0% | – | 15% | 10% | 40% | 0% | 0% | – | 107 µM | 0% | 0% | 0% | 3.82 | – | 80.2% | – | – |
| O=C1Nc2ccc(F)cc2/C1=N/NC(=S)Nc1cccc(C(F)(F)F)c1 | 0% | – | 30% | 10% | 30% | 30% | 0% | – | > 52.4 µM | 0% | 25% | 0% | 4.22 | – | 92.6% | – | – |
| O=C1Nc2ccccc2/C1=N/NC(=S)Nc1cccc(C(F)(F)F)c1 | – | – | – | – | – | – | – | – | – | – | – | – | 4.69 | 78.2% | – | – | – |
| C[n+]1ccc(-c2cc[n+](C)cc2)cc1 | – | – | – | – | – | – | – | – | – | – | – | – | – | – | – | – | 100% |
| O=C1Nc2ccccc2/C1=N/NC(=S)Nc1ccc(C(F)(F)F)cc1 | – | – | – | – | – | – | – | – | – | – | – | – | 4.30 | 44.6% | – | – | – |
| O=C1Nc2ccc(F)cc2/C1=N/NC(=S)Nc1ccccc1C(F)(F)F | 0% | 77.3% | 25% | 10% | 20% | 15% | 0% | – | > 52.4 µM | 5% | 0% | 0% | 4.30 | – | – | – | – |
| O=C1Nc2ccc(F)cc2/C1=N/NC(=S)Nc1ccc(F)cc1F | 0% | – | 30% | 20% | 35% | 40% | 0% | Not Active | > 57.1 µM | 10% | 15% | 0% | – | – | 22.1% | – | – |
| O=C1Nc2ccc(F)cc2/C1=N/NC(=S)Nc1cccc(F)c1 | 0% | 79.8% | 30% | 25% | 25% | 10% | 0% | – | 121 µM | 15% | 15% | 0% | 4.34 | – | – | – | – |
| O=C1Nc2ccccc2/C1=N/NC(=S)Nc1ccc(F)cc1F | – | – | – | – | – | – | – | – | – | – | – | – | 4.32 | 71.9% | – | – | – |
| O=C1Nc2ccccc2/C1=N/NC(=S)Nc1c(F)cccc1F | – | – | – | – | – | – | – | – | – | – | – | – | 4.48 | 92% | – | – | – |
| O=C1Nc2ccccc2/C1=N/NC(=S)Nc1ccc(OC(F)(F)F)cc1 | – | – | – | – | – | – | – | – | – | – | – | – | 4.69 | 49.6% | – | – | – |
| O=C1Nc2ccc(F)cc2/C1=N/NC(=S)Nc1ccccc1F | 0% | – | 35% | 25% | 30% | 0% | 0% | – | 279 µM | 20% | 20% | 0% | 4.42 | – | 94.6% | – | – |
| O=C1Nc2ccccc2/C1=N/NC(=S)Nc1ccccc1C(F)(F)F | – | – | – | – | – | – | – | – | – | – | – | – | 4.48 | 63.1% | – | – | – |

From ChEMBL document CHEMBL3044957, “Synthesis and biological evaluation of some N 4-aryl-substituted 5-fluoroisatin-3-thiosemicarbazones” (Med Chem Res, 2013)
